28 compounds from patent US9914730B2, “Azaquinazoline inhibitors of Atypical protein Kinase C” (Ignyta, Inc., priority 2012, dated 2018) can be followed below.

The assay concerns the target T1, full-length human PKCι (Homo sapiens, UniProt P41743).
T1 construct: Recombinant, full-length human PKCι expressed in Sf21 insect cells is also commercially available; purchased; host or cells: Sf21 insect cells
T1 sequence (P41743 1-596): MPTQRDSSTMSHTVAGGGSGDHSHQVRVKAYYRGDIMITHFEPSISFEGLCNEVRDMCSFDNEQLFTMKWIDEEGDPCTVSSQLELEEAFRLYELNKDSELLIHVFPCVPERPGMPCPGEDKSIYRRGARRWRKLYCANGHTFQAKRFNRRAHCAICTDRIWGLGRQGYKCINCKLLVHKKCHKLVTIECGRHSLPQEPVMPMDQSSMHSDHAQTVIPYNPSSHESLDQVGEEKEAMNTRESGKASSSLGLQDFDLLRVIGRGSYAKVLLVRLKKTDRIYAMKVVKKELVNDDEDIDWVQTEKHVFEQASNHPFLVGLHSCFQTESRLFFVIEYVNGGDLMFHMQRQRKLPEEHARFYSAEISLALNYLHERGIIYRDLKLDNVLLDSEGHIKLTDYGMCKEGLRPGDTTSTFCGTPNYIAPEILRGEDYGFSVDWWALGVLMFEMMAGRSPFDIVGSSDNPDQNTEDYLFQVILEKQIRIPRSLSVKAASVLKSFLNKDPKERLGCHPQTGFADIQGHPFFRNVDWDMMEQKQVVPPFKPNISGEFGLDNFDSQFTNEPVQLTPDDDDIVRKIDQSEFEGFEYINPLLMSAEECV
Briefly: PKCι IC50 IMAP assay, full-length PKCι at 150 μM ATP. It counts as biochemical. As to conditions: read-out: IC50 in IMAP assay against full length PKCi at 150 μM ATP. Summed up:
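Recombinant full-length human PKCι (Sf21-expressed, typically 15 pM) phosphorylated 100 nM 5FAM-labelled PKCε pseudosubstrate-derived peptide with 150 μM ATP (5× KM^APP) in 18 mM tris-HCl pH7.5, 9 mM MgCl2, EGTA, DTT, 4% DMSO. After 60 min at room temperature, IMAP binding reagent was added for 2 h and fluorescence polarisation read.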

For the compound `FC[C@H]1CN(c2nc(-c3ccnc(Nc4ccccc4)c3)nc3cncc(C4CC4)c23)CCN1` [Example 552, {4-[5-Cyclopropyl-4-((R)-3-fluoromethyl-piperazin-1-yl)-pyrido[3,4-d]pyrimidin-2-yl]-pyridin-2-yl}-phenyl-amine], the IC50 is under 100 nM. Regarding `N#C[C@H]1CN(c2nc(-c3ccnc(Nc4c(F)cccc4F)c3)nc3cncc(C4CC4)c23)CCN1` [Example 788, (R)-4-{5-Cyclopropyl-2-[2-(2,6-difluoro-phenylamino)-pyridin-4-yl]-pyrido[3,4-d]pyrimidin-4-yl}-piperazine-2-carbonitrile], the IC50 is 100 to 1000 nM. With `CCOC(=O)N1CCN(c2nc(-c3ccnc4[nH]c(C(F)(F)F)cc34)nc3cncc(C4CC4)c23)CC1` [Example 1224, 4-[5-Cyclopropyl-2-(2-trifluoromethyl-1H-pyrrolo[2,3-b]pyridin-4-yl)-pyrido[3,4-d]pyrimidin-4-yl]-piperazine-1-carboxylic acid ethyl ester] the figure was 10000 to 40000 nM; with `CN1CCN(c2cccc(Nc3cc(-c4nc(N5CCN(C(N)=O)CC5)c5c(C6CC6)cncc5n4)ccn3)c2)CC1` [Example 687, 4-(5-Cyclopropyl-2-{2-[3-(4-methyl-piperazin-1-yl)-phenylamino]-pyridin-4-yl}-pyrido[3,4-d]pyrimidin-4-yl)-piperazine-1-carboxylic acid amide], 100 to 1000 nM; with `Fc1cnc(Nc2cc(-c3nc(N4CCNCC4)c4c(C(F)(F)F)cncc4n3)ccn2)c(F)c1` [Example 2194, (3,5-Difluoro-pyridin-2-yl)-[4-(4-piperazin-1-yl-5-trifluoromethyl-pyrido[3,4-d]pyrimidin-2-yl)-pyridin-2-yl]-amine], under 100 nM. As to `c1cc(-c2nc(N3CCNCC3)c3c(C4CC4)cncc3n2)cc(NC2CCCC2)n1` [Example 281, Cyclopentyl-[4-(5-cyclopropyl-4-piperazin-1-yl-pyrido[3,4-d]pyrimidin-2-yl)-pyridin-2-yl]-amine], the 50% inhibitory concentration (IC50) is under 100 nM. As for `Fc1ccccc1Nc1cc(-c2nc(N3CCNCC3)c3c(Cl)cncc3n2)ccn1` [Example 247, [4-(5-Chloro-4-piperazin-1-yl-pyrido[3,4-d]pyrimidin-2-yl)-pyridin-2-yl]-(2-fluoro-phenyl)-amine], the IC50 is 100 to 1000 nM. `CN(C)CCNC(=O)C1CCN(c2nc(-c3ccnc(Nc4c(F)cccc4F)c3)nc3cncc(C4CC4)c23)CC1` [Example 736, 1-{5-Cyclopropyl-2-[2-(2,6-difluoro-phenylamino)-pyridin-4-yl]-pyrido[3,4-d]pyrimidin-4-yl}-piperidine-4-carboxylic acid (2-dimethylamino-ethyl)-amide]: the half-inhibitory concentration (IC50) is under 100 nM.

Turning to `CC(C)NC(=O)C1CCN(c2nc(-c3ccnc(NC4CCCCC4)c3)nc3cncc(C4CC4)c23)CC1` [Example 674, 1-[2-(2-Cyclohexylamino-pyridin-4-yl)-5-cyclopropyl-pyrido[3,4-d]pyrimidin-4-yl]-piperidine-4-carboxylicacid isopropylamide], the IC50 lay within 1000 to 10000 nM. With `COc1cc(N2CCOCC2)ccc1Nc1cc(-c2nc(N[C@@H]3CCNC3)c3c(OC)cncc3n2)ccn1` [Example 360, {5-Methoxy-2-[2-(2-methoxy-4-morpholin-4-yl-phenylamino)-pyridin-4-yl]-pyrido[3,4-d]pyrimidin-4-yl}-(R)-pyrrolidin-3-yl-amine], the 50% inhibitory concentration (IC50) was 100 to 1000 nM. For `c1cc(-c2nc(N3CCNCC3)c3c(C4CC4)cncc3n2)cc(Nc2cnn(C3CC3)c2)n1` [Example 794, [4-(5-Cyclopropyl-4-piperazin-1-yl-pyrido[3,4-d]pyrimidin-2-yl)-pyridin-2-yl]-(1-cyclopropyl-1H-pyrazol-4-yl)-amine], the half-inhibitory concentration (IC50) is under 100 nM. As for `OC1CCN(c2nc(-c3ccnc4[nH]c(C(F)(F)F)cc34)nc3cncc(C4CC4)c23)CC1` [Example 1239, 1-[5-Cyclopropyl-2-(2-trifluoromethyl-1H-pyrrolo[2,3-b]pyridin-4-yl)-pyrido[3,4-d]pyrimidin-4-yl]-piperidin-4-ol], the IC50 is under 100 nM. Consider `COCCN1CCN(c2nc(-c3ccnc(NC(=O)C4CC4)c3)nc3cncc(C4CC4)c23)CC1` [Example 666, Cyclopropane-carboxylic acid (4-{5-cyclopropyl-4-[4-(2-methoxy-ethyl)-piperazin-1-yl]-pyrido[3,4-d]pyrimidin-2-yl}-pyridin-2-yl)-amide], for which the IC50 was in the range of 1000 to 10000 nM. Take `COc1cncc2nc(-c3ccnc(NC(=O)C(C)(C)C)c3)nc(N3CCNCC3)c12` [Example 217, N-[4-(5-Methoxy-4-piperazin-1-yl-pyrido[3,4-d]pyrimidin-2-yl)-pyridin-2-yl]-2,2-dimethyl-propionamide]: the IC50 was 100 to 1000 nM. As to `c1cc(-c2nc(N3CCNCC3)c3c(C4CC4)cncc3n2)cc(Nc2ccc3c(c2)CCC3)n1` [Example 2124, [4-(5-Cyclopropyl-4-piperazin-1-yl-pyrido[3,4-d]pyrimidin-2-yl)-pyridin-2-yl]-indan-5-yl-amine], the IC50 is under 100 nM. Take `Fc1cnccc1-c1nc(N2CCNC(C(F)(F)F)C2)c2ccncc2n1` (stereo not shown) [Example 66, 1-[2-(3-fluoropyridin-4-yl)pyrido[3,4-d]-pyrimidin-4-yl]-3-(trifluoromethyl)-piperazine]: the IC50 was 10000 to 40000 nM. Take `COc1cncc2nc(-c3ccnc(NC(=O)CN4CCCCC4)c3)nc(N3CCNCC3)c12` [Example 210, N-[4-(5-Methoxy-4-piperazin-1-yl-pyrido[3,4-d]pyrimidin-2-yl)-pyridin-2-yl]-2-piperidin-1-yl-acetamide]: the IC50 fell in the range of 100 to 1000 nM.

For `COc1cncc2nc(-c3ccnc(Nc4cncc(Cl)c4)c3)nc(N3CCNCC3)c12` [Example 417, (5-Chloro-pyridin-3-yl)-[4-(5-methoxy-4-piperazin-1-yl-pyrido[3,4-d]pyrimidin-2-yl)-pyridin-2-yl]-amine], the IC50 is 100 to 1000 nM. Take `NC(=O)Cc1ccc(Nc2cc(-c3nc(N[C@@H]4CCNC4)c4ccncc4n3)ccn2)cc1` [Example 313, 2-(4-{4-[4-((R)-Pyrrolidin-3-ylamino)-pyrido[3,4-d]pyrimidin-2-yl]-pyridin-2-ylamino}-phenyl)-acetamide]: the IC50 is under 100 nM. On to `NC(=O)c1ccc(Nc2cc(-c3nc(N4CCNCC4)c4c(C5CC5)cncc4n3)ccn2)nc1` [Example 844, 6-[4-(5-Cyclopropyl-4-piperazin-1-yl-pyrido[3,4-d]pyrimidin-2-yl)-pyridin-2-ylamino]-nicotinamide], for which the IC50 was under 100 nM. Consider `CN1CCCN(c2nc(-c3ccncc3)nc3cnccc23)CC1` [Example 19, 1-methyl-4-[2-(pyridin-4-yl)-pyrido[3,4-d]-pyrimidin-4-yl]-1,4-diazepane], for which the half-maximal inhibitory concentration (IC50) lay within 10000 to 40000 nM.

For the compound `Fc1ccc(F)c(Nc2cc(-c3nc(N4CCNCC4)c4c(C5CCC5)cncc4n3)ccn2)n1` [Example 799, [4-(5-Cyclobutyl-4-piperazin-1-yl-pyrido[3,4-d]pyrimidin-2-yl)-pyridin-2-yl]-(3,6-difluoro-pyridin-2-yl)-amine], the half-inhibitory concentration (IC50) was under 100 nM. As to `CCP(=O)(CC)c1ccc(Nc2cc(-c3nc(N4CCNCC4)c4c(C5CC5)cncc4n3)ccn2)cc1` [Example 550, [4-(5-Cyclopropyl-4-piperazin-1-yl-pyrido[3,4-d]pyrimidin-2-yl)-pyridin-2-yl]-[4-(diethyl-phosphinoyl)-phenyl]-amine], the concentration for half-maximal inhibition (IC50) was under 100 nM. As to `COc1cncc2nc(-c3ccnc(Nc4ccccc4)c3)nc(N3CCC(CO)CC3)c12` [Example 244, {1-[5-Methoxy-2-(2-phenylamino-pyridin-4-yl)-pyrido[3,4-d]pyrimidin-4-yl]-piperidin-4-yl}-methanol], the IC50 fell in the range of 1000 to 10000 nM. With `CN1CCN(c2cccc(Nc3cc(-c4nc(N5CCC[C@H](O)C5)c5c(C6CC6)cncc5n4)ccn3)c2)CC1` [Example 737, (S)-1-(5-Cyclopropyl-2-{2-[3-(4-methyl-piperazin-1-yl)-phenylamino]-pyridin-4-yl}-pyrido[3,4-d]pyrimidin-4-yl)-piperidin-3-ol], the IC50 was under 100 nM. Regarding `COc1cncc2nc(-c3ccnc(Nc4ccc(N5CCOCC5)cc4C)c3)nc(N3CCNCC3)c12` [Example 383, [4-(5-Methoxy-4-piperazin-1-yl-pyrido[3,4-d]pyrimidin-2-yl)-pyridin-2-yl]-(2-methyl-4-morpholin-4-yl-phenyl)-amine], the IC50 was under 100 nM. With `N#Cc1ccnc(Nc2cc(-c3nc(N4CC[C@@H](O)[C@H](O)C4)c4c(C5CC5)cncc4n3)ccn2)c1` (racemic) [Example 677, (+/−)-2-{4-[5-Cyclopropyl-4-((trans)-3,4-dihydroxy-piperidin-1-yl)-pyrido[3,4-d]pyrimidin-2-yl]-pyridin-2-ylamino}-isonicotinonitrile] the figure was 100 to 1000 nM; with `CC(C)(C)c1cc2c(-c3nc(N4CCNCC4)c4c(C5CC5)cncc4n3)ccnc2[nH]1` [Example 1231, 2-(2-tert-Butyl-1H-pyrrolo[2,3-b]pyridin-4-yl)-5-cyclopropyl-4-piperazin-1-yl-pyrido[3,4-d]pyrimidine], under 100 nM.
